Assay results: patent US12715846B2, “Crystal form of quinolinone compound and use thereof” (SUNSHINE LAKE PHARMA CO., LTD., priority 2019, dated 2026)

Key:
[1] = Stability: accelerated experiment; format: physicochemical; settings: for Appearance / Purity / Moisture content: 40 ± 2° C./75% ± 5% RH; for Purity: HPLC; for Moisture content: by TGA
Procedure: (4) Accelerated experiment: appropriate amount of the test sample was packed with a single-layer PE and aluminum foil, the sample was placed at 40±2° C./75%±5% RH for 6 months. Samples were taken on the 1st, 2nd, 3rd and 6th month. The color of the samples were observed, the purities of the samples were determined by HPLC, and the moisture content was determined by TGA.

[2] = Crystal form stability on standing under normal temperature and pressure; format: physicochemical; settings: normal temperature and pressure conditions
[3] = Stability: illumination experiment; format: physicochemical; settings: for Appearance / Purity: Illumination; for Purity: HPLC
Procedure: (3) Illumination experiment: a batch of the test sample was added into a flat weighing bottle, divided into ≤5mm thick thin layer. The bottle was opened and placed in a light box (with UV lamp) under the condition of illuminance of 4500±500 lx and ultraviolet light ≥0.7w/m^2 for 30 days. Samples were taken on the 6th, 13th, and 30th day, the purities of the samples were determined by HPLC.

[4] = Stability: high-temperature experiment; format: physicochemical; settings: for Purity: HPLC
Procedure: (1) High-temperature experiment: appropriate amount of the test sample was added into a flat weighing bottle, divided into ≤5 mm thick thin layer. The bottle was placed at 60° C.±2° C. for 30 days. Samples were taken on the 6th, 10th, and 30th day, and tested according to the key stability inspection items: the color of the samples were observed, the purities of the samples were determined by HPLC.

[5] = Hygroscopicity experiment (dynamic moisture adsorption, DVS); format: physicochemical
Procedure: The hygroscopicity of the present invention was measured by a DVS INT-Std dynamic moisture and gas adsorption analyzer from Surface Measurement Systems, UK. The humidity test range was 0%-95%, the airflow rate was 200 mL/min, and the temperature was 25° C. One test point was taken for every 5% increase in humidity.
An appropriate amount of the test sample was taken, the hygroscopicity was tested by dynamic moisture adsorption device.

[6] = Pharmacokinetic experiment of the crystal form in Beagle dogs; format: in vivo
Procedure: The crystal form of the compound of formula (I) of the present invention is filled into capsules for oral administration.
8-12 kg male Beagle dogs were taken, and 3 as a group. Capsules containing the test sample were orally administered at a dose of 10 mg/kg and the bloods were collected at time points of 0.25, 0.5, 1.0, 2.0, 4.0, 6.0, 8.0 and 24 h. Standard curve was plotted based on concentrations of the samples in a suitable range, the concentration of the test sample in the plasma sample was measured and quantified by AB SCIEX API4000 LC-MS/MS at MRM mode. Pharmacokinetic parameters were calculated according to drug concentration-time curve using a noncompartmental method by WinNonLin 6.3 software.

Solubility experiment = format: physicochemical; settings: comparison in words, values not given
Procedure: The solubility of the present invention was determined using an Agilent 1200 High Performance Liquid Chromatograph DAD/VWD detector with an Agilent XDB-C18 model (4.6×50 mm, 5 μm). The detection wavelength was 266 nm, the flow rate was 1.0 mL/min, and the column temperature was 35° C. The mobile phase A was acetonitrile−0.01 M ammonium acetate=10:90 (V:V), and the analysis method was acetonitrile−mobile phase A=70:30 (V:V). The running time was 10 minutes.

[7] = Stability: high-humidity experiment; format: physicochemical; settings: for Appearance / Purity: High humidity (RH92.5%); for Purity: HPLC
Procedure: (2) High-humidity experiment: a batch of the test sample was added into a flat weighing bottle, divided into ≤5 mm thick thin layer. The bottle was placed at 25° C. and RH for 90%±5% for 30 days. Samples were taken on the 6th, 10th, and 30th day, and tested according to the key stability inspection items: the color of the samples were observed, the purities of the samples were determined by HPLC.

[8] = 0 day (start, common to all conditions of Table 2)
[9] = High temperature (60° C.), 6th day
[10] = High temperature (60° C.), 10th day
[11] = High temperature (60° C.), 30th day
[12] = dog, plasma, po, male Beagle dogs, capsules orally, 10 mg/kg

In the case of `Cn1c(=O)c(C(=O)NCC(=O)O)c(O)c2ccc(Oc3ccccc3)cc21` [Example 1, 2-(4-hydroxy-1-methyl-2-oxo-7-phenoxy-1,2-dihydroquinoline-3-carboxamido)acetic acid], the Appearance ([1]; 0 month) is reported as “off-white”, the Purity ([1]; 0 month) is reported as 99.78% and the Moisture content ([1]; 0 month) is reported as 0.04%. For the same compound, the Appearance ([1]; 1st month) was “off-white”, the Purity ([1]; 1st month) was 99.77% and the Moisture content ([1]; 1st month) was 0.06%. The Appearance ([1]; 2nd month) was “off-white”, the Purity ([1]; 2nd month) was 99.78% and the Moisture content ([1]; 2nd month) was 0.07%. For the same compound, the Appearance ([1]; 3rd month) was “off-white”, the Purity ([1]; 3rd month) was 99.78% and the Moisture content ([1]; 3rd month) was 0.08%. The Appearance ([1]; 6th month) was “off-white”, the Purity ([1]; 6th month) was 99.78% and the Moisture content ([1]; 6th month) was 0.12%. For the same compound, the “change of appearance, purity and moisture content” value ([1]; accelerated experimental conditions (40±2° C./75%±5% RH, 6 months)) was “no obvious changes”, the “crystal transformation on standing” value ([2]; listed as crystal form I) was “does not undergo crystal transformation” and the Appearance ([3]; 6th day) was “off-white”. For the same compound, the Purity ([3]; 6th day) was 99.77%, the Appearance ([3]; 13th day) was “off-white” and the Purity ([3]; 13th day) was 99.77%. The Appearance ([3]; 30th day) was “off-white”, the Purity ([3]; 30th day) was 99.72% and the “change of appearance and purity” value ([3]; lighting conditions, 30 days) was “no obvious changes”. The Appearance [4, 8] was “off-white”, the Purity [4, 8] was 99.76% and the Appearance [4, 9] was “off-white”. The Purity [4, 9] was 99.77%, the Appearance [4, 10] was “off-white” and the Purity [4, 10] was 99.78%. The Appearance [4, 11] was “off-white”, the Purity [4, 11] was 99.77% and the “change of appearance and purity” value ([4]; high temperature (60° C.), 30 days) was “no obvious changes”. For the same compound, the hygroscopicity feature ([5]; Chinese Pharmacopoeia 2015 General Principle 9103 classes (Table 5)) was “lightly hygroscopic”, the “Weight gain at 60% relative humidity” value ([5]; DVS, 25° C., 60% relative humidity) was 0.27% and the “Weight gain at 80% relative humidity” value ([5]; DVS, 25° C., 80% relative humidity) was 0.38%. For the same compound, the “Weight gain at 95% relative humidity” value ([5]; DVS, 25° C., 95% relative humidity) was 0.57%, the “exposure in beagle dogs” value ([6]; beagle dogs, oral capsules 10 mg/kg, conclusion from Table 1) was “larger exposure” and the AUC(0-t) [6, 12] was 9300 ng·h/mL. The Cmax [6, 12] was 2810 ng/mL, the Tmax [6, 12] was 1.17 h and the “solubility compared with crystal form II” value (Solubility experiment) was “better solubility”. For the same compound, the Appearance ([7]; 6th day) was “off-white”, the Purity ([7]; 6th day) was 99.78% and the Appearance ([7]; 10th day) was “off-white”. The Purity ([7]; 10th day) was 99.77%, the Appearance ([7]; 30th day) was “off-white” and the Purity ([7]; 30th day) was 99.76%. For the same compound, the “change of appearance and purity” value ([7]; high humidity (25° C., RH 90%±5%), 30 days) was “no obvious changes”.

For `Cn1c(=O)c(C(=O)NCC(=O)O)c(O)c2ccc(Oc3ccccc3)cc21` [crystal form II, 2-(4-hydroxy-1-methyl-2-oxo-7-phenoxy-1,2-dihydroquinoline-3-carboxamido)acetic acid], the “crystal transformation on standing” value [2] was “easy to undergo crystal transformation”.
